# Read-outs that look alike come from different tables or passages of the source.
# Legend:
# melon aphids [1] = assay: whole plant or invertebrate; conditions: Aphis gossypii, topical, 24 h, read-out: Total Mortality
# two-spotted spider mites [2] = conditions: 1.0% BB, 0.1% T80; words
# western flower thrips [3] = conditions: words
# leafminer = conditions: for highest observed mortality: leafminer, in vivo, topical or ocular, 480 h
# western flower thrips [4] = assay: whole plant or invertebrate; conditions: Frankliniella occidentalis, topical, 72 h, read-out: highest observed mortality
# human head lice eggs = conditions: 22.5 g as a thin layer on the eggs; cited from earlier work
# rats = conditions: Merck Index; cited from earlier work
# pharaoh ant = conditions: for highest observed mortality: in vivo, topical or ocular, 24 h
# Description: (§1) All experiments were conducted with a hand held sprayer at an application rate equivalent to 100 gallons/acre. […] Specific treatment conditions were as follows: pharaoh ants were contained in paper cups with a cloth mesh enclosure at the top and sprayed from a distance of 12 inches; honey bees were contained in wire mesh cages with Petri dishes as end enclosures and sprayed from a distance of 24 inches; German cockroaches and houseflies were contained in Peet-Grady chambers and sprayed from a distance of 24 inches; and cat fleas were delivered onto carpet disks and sprayed from an un-reported distance.
# (§2) In evaluating efficacy against structural pests, BS was tested on pharaoh ant and cat flea at two concentrations, 1 wt % and 5 wt %.
# [5] = tested on: Western flower thrips (larvae and pupae); conditions: 1.0% BB, 0.1% T80, words
# chrysanthemums = tested on: chrysanthemums; set-up: species or system chrysanthemum; conditions: in vivo
# Excerpt: Both formulations were applied via direct contact spray. […] The phytotoxicity of plants were also observed.
# [6] = tested on: E. hirsti (chiggar mite) larvae; conditions: cloth treated with ethanol solution of 5% benzyl benzoate, cited from earlier work
# honey bee = assay: Pesticidal efficacy, honey bee (Example 8); format: in vivo; conditions: Apis mellifera, topical, T20 carrier, 24 hours post application, read-out: highest observed mortality
# melon aphids [7] = assay: whole plant or invertebrate; conditions: Aphis gossypii, topical, read-out: Total Mortality
# melon aphids [8] = conditions: words
# [9] = tested on: Western flower thrips (larvae and pupae); assay: whole plant or invertebrate; conditions: Frankliniella occidentalis, topical, read-out: Total Mortality
# melon aphid = assay: Pesticidal efficacy, melon aphid (Example 8); conditions: for mortality at 1 % / mortality at 5 %: Aphis gossypii, topical, read-out: highest observed mortality
# Description: (§3) Plants (chrysanthemum and minirose) were infested with melon aphid and two-spotted spider mites and sprayed to run-off using a standard 250 ml hand-held sprayer. Mortality was recorded at 24 HPA and 48 HPA.
# housefly = assay: whole plant or invertebrate; conditions: Musca domestica, topical, 24 h, read-out: highest observed mortality
# Description: as §1
# silverleaf whiteflies = conditions: for highest observed mortality: silverleaf whitefly, in vivo, topical or ocular, 120 h
# melon aphids [10] = conditions: 1.5% BB, 0.5% T80; words
# melon aphids [11] = conditions: 1.5% BB, 0.3% T80; words
# roses = conditions: in vivo
# Excerpt: Both formulations were applied via direct contact spray.
# Both were applied via direct contact spray.
# cat flea = assay: Pesticidal efficacy, cat flea (Example 8); conditions: for mortality at 5 wt %: Ctenocephalides felis, topical, 24 h, read-out: highest observed mortality
# Description: as §1, §2
# German cockroach = assay: whole plant or invertebrate; conditions: Blattella germanica, topical, 24 h, read-out: highest observed mortality
# Description: as §1
# melon aphids [12] = assay: whole plant or invertebrate; conditions: Aphis gossypii, topical, 24 h, read-out: Total Mortality; remark: listed apart in the source
# two-spotted spider mites [13] = conditions: words
# arthropods = assay: Insecticidal activity on arthropods (general statement); format: in vivo; conditions: words
# [14] = until 25 wt % concentration; cited from earlier work
# melon aphids [15] = assay: whole plant or invertebrate; format: in vivo, Aphis gossypii; conditions: for efficacy against melon aphids: 1.0% BS, 0.2% T20, words
# Argentine ants = assay: Repellency to Argentine ants; format: in vivo, Argentine ant; conditions: at one week
# two-spotted spider mites [16] = format: in vivo, Tetronmychua urticae; conditions: for efficacy against two-spotted spider mites: 1.0% BS, 0.2% T20, words
# plants = assay: Phytotoxicity to plants (general statement); format: in vivo; conditions: words
# Argentine ant = assay: Pesticidal efficacy, Argentine ant (Example 8)
# two-spotted spider mite = assay: Pesticidal efficacy, two-spotted spider mite (Example 8); conditions: for mortality at 5 %: Tetranychus urticae, topical, read-out: highest observed mortality
# Description: as §3
# American cockroach [17] = assay: whole plant or invertebrate; conditions: Periplaneta americana, topical, read-out: highest observed mortality
# Description: (§4) The objective of the experiment was to evaluate the general effectiveness of ES in an emulsion formulation against the American cockroach.
# (§5) An emulsion of ES (Sigma) was prepared at 5.0 wt % ES and 1.0 wt % T20. A 1 wt % T20 solution was also prepared as a formula blank treatment. A negative control of no treatment was included in the bioassay. The three treatments were applied to three replications of 4 cockroaches each.
# (§6) The treatments were applied as sprays using a standard hand held 250 ml sprayer. For each direct treatment, 4 cockroaches were each sprayed to run-off on filter paper fitted to the bottom of a 1 liter stainless steel jar. Cockroaches were then transferred to 250 ml flasks for observation. For residuality/reintroduction bioassays, the treated filter papers were removed from direct treatment spray jars and allowed to air dry. After drying, the filter papers were replaced in jars and cockroaches introduced for observation.
# American cockroach [18] = conditions: for Time (to 100% lethality): 5.0 wt % ES, 1.0 wt % T20
# Description: as §4, §5, §6
# cladosporium = assay: Evaluation against the fungus cladosporium; conditions: 1 wt % formulation
structure (smiles),measurement,setting,value
"O=C(OCc1ccccc1)c1ccccc1 [BB, benzyl benzoate]",mortality at 1.5 %,melon aphids [1],89.4%
same,efficacy against two-spotted spider mites,two-spotted spider mites [2],indicate efficacy of the benzyl benzoate formulation against two-spotted spider mites
same,"dose response, western flower thrips",western flower thrips [3],all except for western flower thrips
same,highest observed mortality,leafminer,24%
same,"dose response, leafminer",leafminer; words,Good dose response
same,mortality at 0.25 %,western flower thrips [4],14%
same,killing human head lice eggs,human head lice eggs,killing human head lice eggs
same,LD50,rats,"1,830 mg/Kg"
same,highest observed mortality,pharaoh ant,21%
same,efficacy against Western flower thrips,[5],clear efficacy against Western flower thrips
same,efficacy against Western flower thrips,[5]; listed as benzyl benzoate,"effective for controlling aphids, thrips"
same,phytotoxicity of chrysanthemums,chrysanthemums,None of the treatments resulted in phytotoxicity of chrysanthemums
same,phytotoxicity to chrysanthemums,chrysanthemums,no phytotoxicity to chrysanthemums
same,"phytotoxicity, chrysanthemum",chrysanthemums,"no phytotoxicity for 5 days, only the lowest leaves showed two necrotic spots but no serious damage"
same,"phytotoxicity, chrysanthemums",chrysanthemums,no phytotoxicity
same,knockdown of test larvae,[6]; <3 minutes,100%
same,time to 100% knockdown,[6],< 3 min
same,mortality at 0.3 %,honey bee; 0.3 wt % AC,68%
same,mortality at 1.5 %,melon aphids [7],85%
same,efficacy against melon aphids,"melon aphids [8]; 2.5% BB, 0.1% T80",clear efficacy against melon aphids
same,controlling aphids,melon aphids [8]; summary of Examples 1-7,effective for controlling aphids
same,mortality at 1 %,[9],85.7%
same,mortality at 1 %,melon aphid,74%
same,"dose response, melon aphid",melon aphid; words,Good dose response
same,mortality at 0.1 %,housefly,35%
same,highest observed mortality,silverleaf whiteflies,39%
same,"dose response, silverleaf whiteflies",silverleaf whiteflies; words,Good dose response
same,effect on melon aphids,melon aphids [10],"killed the aphids in their tracks; the aphids did not desiccate, instead appeared preserved"
same,efficacy against melon aphids,melon aphids [11],clear efficacy against melon aphids
same,phytotoxicity observed on the roses,roses,no phytotoxicity observed
same,mortality at 5 wt %,cat flea,93%
same,mortality at 1 %,German cockroach,0%
same,mortality at 2.5 %,melon aphids [12],90.3%
same,efficacy against two spotted spider mites,"two-spotted spider mites [13]; 2.5% BB, 0.1% T80",clearly indicate efficacy of the BB formulation against two spotted spider mites
same,controlling spider mites,two-spotted spider mites [13]; summary of Examples 1-7,"effective for controlling aphids, thrips, and spider mites"
"O=C(OCc1ccccc1)c1ccccc1O [BS, benzyl salicylate]",insecticidal activity,arthropods,clearly shown to be insecticidal
same,highest observed mortality,leafminer,25%
same,mortality at 0.5 %,western flower thrips [4],36%
same,contact dermatitis,[14],does not cause contact dermatitis (until 25 wt % concentration)
same,effective on pharaoh ant,"pharaoh ant; 5 wt %, words",effective on both pests
same,highest observed mortality,pharaoh ant,89%
same,"phytotoxicity, chrysanthemums",chrysanthemums,"severe damage from leaf tips moving inwards, and some leaf damage beginning from bottom leaves and moving upwards, with the newest leaves remaining unaffected"
same,efficacy against melon aphids,melon aphids [15],clearly indicate the efficacy of BS against melon aphids
same,efficacy against melon aphids,melon aphids [15]; listed as benzyl salicylate,effective in controlling aphids
same,mortality at 1 %,"melon aphids [15]; Aphis gossypii, topical, read-out: Total Mortality",89.3%
same,mortality at 1 %,honey bee; 1.0 wt % AC,78%
same,repellant to Argentine ants,Argentine ants,repellant to Argentine ants at one week
same,mortality at 1 %,melon aphid,98%
same,"dose response, melon aphid",melon aphid; words,activity increased with AC concentration only on melon aphid
same,mortality at 0.1 %,housefly,47%
same,highest observed mortality,silverleaf whiteflies,70%
same,efficacy against two-spotted spider mites,two-spotted spider mites [16],clearly indicate the efficacy of BS against melon aphids and two-spotted spider mites
same,efficacy against two-spotted spider mites,two-spotted spider mites [16]; listed as benzyl salicylate,effective in controlling aphids and spider mites
same,Total Mortality,"two-spotted spider mites [16]; in vivo, topical or ocular",86.9%
same,phytotoxicity,plants,can be phytotoxic to some plants
same,effective on cat flea,"cat flea; 5 wt %, words",effective on both pests
same,mortality at 5 wt %,cat flea,100%
same,mortality at 1.1 %,German cockroach,0%
same,highest observed mortality,"Argentine ant; 1.0 wt % AC, T20 carrier",99%
same,LC100 at higher concentrations,"Argentine ant; 2, 3 and 5 wt %, words","held at 2 wt %, 3 wt % and 5 wt %"
same,LC100,Argentine ant; AC concentration,1 wt %
same,activity on Argentine ants,Argentine ant; words,excellent activity
same,"dose response, Argentine ants",Argentine ant; words,good dose response
"CCOC(=O)c1ccccc1O [ES, ethyl salicylate]",mortality at 5 %,two-spotted spider mite,90%
same,mortality at 5 wt %,American cockroach [17],100%
same,mortality at 5 %,melon aphid,90%
same,lethality on American cockroach,"American cockroach [18]; 5 wt %, direct spray, words",lethal
same,Time (to 100% lethality),American cockroach [18]; Direct spray,3 to 7 min
same,Time (to 100% lethality),American cockroach [18]; Residuality/Reintroduction,60 to 120 min
same,Lethality,"American cockroach [18]; american cockroach, in vivo",100%
same,"time, lethal to all test cockroaches",American cockroach [18]; both direct spray and residual/reintroduction,≤ 2 h
CC(=O)OCc1ccccc1 [benzyl acetate],mortality at 5 %,two-spotted spider mite,≥ 90%
same,activity on 2-spotted spider mites,two-spotted spider mite; words,high activity
same,mortality at 5 %,melon aphid,≥ 90%
same,activity on aphid,melon aphid; words,high activity
same,phytotoxicity,plants,non-phytotoxic
CCCCOC(=O)c1ccccc1C(=O)OCc1ccccc1 [benzyl butyl phthalate],mortality at 5 %,two-spotted spider mite,50%
same,mortality at 5 %,melon aphid,70%
COC(=O)c1ccccc1O [methyl salicylate],mortality at 5 %,two-spotted spider mite,90%
same,mortality at 5 %,melon aphid,90%
O=C(Oc1ccccc1)c1ccccc1O [phenyl salicylate],mortality at 5 %,two-spotted spider mite,90%
same,mortality at 5 %,melon aphid,90%
same,effect against the fungus cladosporium,cladosporium,effective at both inhibiting fungal growth and at killing the fungus

# — US6124275A, “Methods and compositions for controlling a pest population” (priority 1999, dated 2000)
